Experimental data: paper PMC6151437, “Antibacterial Synthetic Peptides Derived from Bovine Lactoferricin Exhibit Cytotoxic Effect against MDA-MB-468 and MDA-MB-231 Breast Cancer Cell Lines” (Molecules : A Journal of Synthetic Chemistry and Natural …, 2017)
Like-named read-outs stand apart in the source and are kept apart here. Bridge positions count the residues as written; N and C are the ends. Square brackets hold non-standard residues; d marks the D form. Ends that are not written are not given here. Peptide text beside a SMILES is read from it. I, II: the chains in the order shown. Ahx = NCCCCCC(=O)O

Experiments:
E. coli ATCC 25922 = format: cell-based
Protocol: (§1) The minimal inhibitory concentration (MIC) was determined using a microdilution assay. In brief, bacterial strains were incubated for 18 to 24 h at 37 °C in an Muller Hinton broth (MHB) until an optical density of 0.15 to 0.30 (620 nm) was obtained. 90 µL of MHB was mixed with 90 µL of peptide (440 µg/mL), and using a 96-well microtiter plate peptide, serial dilution (200, 100, 50, 25, 12.5, and 6.2 µg/mL) was performed. 10 µL of inoculum (2 × 10^6 CFU/mL) was added to each well. Final volume in each well was 100 µL. Then they were incubated for 24 h at 37 °C, and the absorbance at 620 nm was measured using an Asys Expert Plus ELISA reader. For determining the minimum bactericidal concentration (MBC), a small sample was taken from each well using an inoculation loop, which was then spread on MHA plates and incubated overnight at 37 °C. […] Each of these tests was performed twice (n = 2).

E. coli ATCC 11775 = format: cell-based
Protocol: as §1

[1] = format: cell-based, human; conditions: human
Protocol: (§2) Cytotoxicity assays were performed as previously described. Briefly, breast cancer cell lines (100 µL; 2.5 × 10^3 cells/well) were seeded in 96-well flat bottom tissue culture treated plates and were incubated at 37 °C in a 10% CO2 humidified atmosphere for 24 h, allowing for cell adhesion. Then the media was removed, then 100 µL of FBS (5%) and 100 µL of peptide were added. The peptide final concentration was ranging from 200 to 6.25 µg/mL and the final FBS concentration was 2.5%. Plates were incubated 2 h at 37 °C in a 10% CO2 humidified atmosphere (physiologic pH). Negative controls included medium and water. All controls were prepared in triplicate. Cell viability was determined using the MTT assay after 2 h. For this, 10 µL of MTT solution (5 mg/mL) was added to each well, and the plates were incubated for 2 h at 37 °C. Formazan crystals were clarified by centrifugation, the supernatant was discarded, and the crystals were dissolved in DMSO (100 µL). Absorbance (570 nm) was registered on a Bio-Rad 680 microplate reader. (n = 3).

[2] = format: cell-based, human; conditions: human; remark: listed apart in the source
Protocol: as §2

[3] = test system: human gastric cancer cell line AGS; conditions: cited from earlier work
[4] = E. coli ATCC 25922, microdilution in MHB, 24 h at 37 °C, absorbance 620 nm, n = 2
[5] = E. coli ATCC 25922, plated on MHA overnight at 37 °C, no bacterial growth, n = 2
[6] = E. coli ATCC 11775, microdilution in MHB, 24 h at 37 °C, absorbance 620 nm, n = 2
[7] = E. coli ATCC 11775, plated on MHA overnight at 37 °C, no bacterial growth, n = 2

Molecule | Antibacterial Effect MIC (E. coli ATCC 25922; ATCC 25922, 24 h) | Antibacterial Effect MIC (E. coli ATCC 25922; [4]) [mg/L] | Antibacterial Effect MBC (E. coli ATCC 25922; E. coli ATCC 25922, value in parentheses, plated on MHA overnight at 37 °C, n = 2) [µM] | Antibacterial Effect MIC (E. coli ATCC 11775; E. coli ATCC 11775, value in parentheses, microdilution in MHB, 24 h at 37 °C, n = 2) [µM] | Antibacterial Effect MBC (E. coli ATCC 11775; E. coli ATCC 11775, value in parentheses, plated on MHA overnight at 37 °C, n = 2) [µM] | Antibacterial Effect MBC (E. coli ATCC 25922; ATCC 25922) | Antibacterial Effect MBC (E. coli ATCC 25922; [5]) [mg/L] | Antibacterial Effect MBC (E. coli ATCC 11775; ATCC 11775) | Antibacterial Effect MIC (E. coli ATCC 11775; ATCC 11775, 24 h) | Antibacterial Effect MIC (E. coli ATCC 11775; [6]) [mg/L] | Antibacterial Effect MBC (E. coli ATCC 11775; [7]) [mg/L] | IC50 at 2 h [1] [µM] | IC50 at 2 h [2] [µM] | IC50 [3] [µM]
N=C(N)NCCC[C@@H]1NC(=O)[C@H](Cc2c[nH]c3ccccc23)NC(=O)[C@H](CCC(N)=O)NC(=O)[C@H](Cc2c[nH]c3ccccc23)NC(=O)[C@H](CCCNC(=N)N)NC(=O)[C@H](CCCNC(=N)N)NC(=O)[C@@H](N)CSSC[C@@H](C(N)=O)NC(=O)CCCCCNC1=O [LfcinB (20–25)cyc] (H-CRRWQWR[Ahx]C-NH2; disulfide 1-9) | 77 µM | 100 | > 153 | 153 | 153 |  |  |  |  |  |  |  |  | 
CSCC[C@H](NC(=O)[C@H](CCCNC(=N)N)NC(=O)[C@H](Cc1c[nH]c2ccccc12)NC(=O)[C@H](CCC(N)=O)NC(=O)[C@H](Cc1c[nH]c2ccccc12)NC(=O)[C@H](CCCNC(=N)N)NC(=O)[C@@H](N)CCCNC(=N)N)C(=O)N[C@@H](CCCCN)C(=O)N[C@@H](CCCCN)C(=O)N[C@@H](CC(C)C)C(=O)NCC(=O)NCCCC[C@H](NC(=O)CNC(=O)[C@H](CC(C)C)NC(=O)[C@H](CCCCN)NC(=O)[C@H](CCCCN)NC(=O)[C@H](CCSC)NC(=O)[C@H](CCCNC(=N)N)NC(=O)[C@H](Cc1c[nH]c2ccccc12)NC(=O)[C@H](CCC(N)=O)NC(=O)[C@H](Cc1c[nH]c2ccccc12)NC(=O)[C@H](CCCNC(=N)N)NC(=O)[C@@H](N)CCCNC(=N)N)C(=O)NCCCCCC(N)=O [LfcinB (20–30)2] (I: H-RRWQWRMKKLGK[Ahx]-NH2 / II: H-RRWQWRMKKLG; amide I:12-II:C) | 30 µM | 100 |  |  |  | 60 µM | 200 | 60 µM | 60 µM | 200 | 200 |  |  | 
CSCC[C@@H]1NC(=O)[C@H](CCCNC(=N)N)NC(=O)[C@H](Cc2c[nH]c3ccccc23)NC(=O)[C@H](CCC(N)=O)NC(=O)[C@H](Cc2c[nH]c3ccccc23)NC(=O)[C@H](CCCNC(=N)N)NC(=O)[C@H](CCCNC(=N)N)NC(=O)[C@@H](N)CSSC[C@@H](C(N)=O)NC(=O)CCCCCNC(=O)CNC(=O)[C@H](CC(C)C)NC(=O)[C@H](CCCCN)NC(=O)[C@H](CCCCN)NC1=O [LfcinB (20–30)cyc] (H-CRRWQWRMKKLG[Ahx]C-NH2; disulfide 1-14) | 200 mg/L |  |  |  |  | 200 mg/L |  | 200 mg/L | 200 mg/L |  |  |  |  | 
CSCC[C@H](NC(=O)[C@H](CCCNC(=N)N)NC(=O)[C@H](Cc1c[nH]c2ccccc12)NC(=O)[C@H](CCC(N)=O)NC(=O)[C@H](Cc1c[nH]c2ccccc12)NC(=O)[C@H](CCCNC(=N)N)NC(=O)[C@H](CCCNC(=N)N)NC(=O)[C@H](C)NC(=O)[C@H](CCCCN)NC(=O)[C@@H](N)Cc1ccccc1)C(=O)N[C@@H](CCCCN)C(=O)N[C@@H](CCCCN)C(=O)N[C@@H](CC(C)C)C(=O)NCC(=O)N[C@@H](C)C(=O)NCCCC[C@H](NC(=O)[C@H](C)NC(=O)CNC(=O)[C@H](CC(C)C)NC(=O)[C@H](CCCCN)NC(=O)[C@H](CCCCN)NC(=O)[C@H](CCSC)NC(=O)[C@H](CCCNC(=N)N)NC(=O)[C@H](Cc1c[nH]c2ccccc12)NC(=O)[C@H](CCC(N)=O)NC(=O)[C@H](Cc1c[nH]c2ccccc12)NC(=O)[C@H](CCCNC(=N)N)NC(=O)[C@H](CCCNC(=N)N)NC(=O)[C@H](C)NC(=O)[C@H](CCCCN)NC(=O)[C@@H](N)Cc1ccccc1)C(=O)NCCCCCC(N)=O [[Ala^19]-LfcinB (17–31)2] (I: H-FKARRWQWRMKKLGAK[Ahx]-NH2 / II: H-FKARRWQWRMKKLGA; amide I:16-II:C) | 24 µM | 100 |  |  |  | 24 µM | 100 | > 48 µM | > 48 µM | > 200 | > 200 |  |  | 
CSCC[C@H](NC(=O)[C@H](CCCNC(=N)N)NC(=O)[C@H](Cc1c[nH]c2ccccc12)NC(=O)[C@H](CCC(N)=O)NC(=O)[C@H](Cc1c[nH]c2ccccc12)NC(=O)[C@H](CCCNC(=N)N)NC(=O)[C@H](CCCNC(=N)N)NC(=O)[C@H](C)NC(=O)[C@H](CCCCN)NC(=O)[C@@H](N)Cc1ccccc1)C(=O)N[C@@H](CCCCN)C(=O)N[C@@H](CCCCN)C(=O)N[C@@H](CC(C)C)C(=O)NCC(=O)N[C@@H](C)C(=O)O [[Ala^19]-LfcinB (17–31)] | 102 µM |  |  |  |  | 102 µM |  | 102 µM | > 102 µM |  |  | > 102 | > 102 | 
CSCC[C@@H]1NC(=O)[C@H](CCCNC(=N)N)NC(=O)[C@H](Cc2c[nH]c3ccccc23)NC(=O)[C@H](CCC(N)=O)NC(=O)[C@H](Cc2c[nH]c3ccccc23)NC(=O)[C@H](CCCNC(=N)N)NC(=O)[C@H](CCCNC(=N)N)NC(=O)[C@H](C)NC(=O)[C@H](CCCCN)NC(=O)[C@H](Cc2ccccc2)NC(=O)[C@@H](N)CSSC[C@@H](C(N)=O)NC(=O)CCCCCNC(=O)[C@H](C)NC(=O)CNC(=O)[C@H](CC(C)C)NC(=O)[C@H](CCCCN)NC(=O)[C@H](CCCCN)NC1=O [[Ala^19]-LfcinB (17–31)cyc] (H-CFKARRWQWRMKKLGA[Ahx]C-NH2; disulfide 1-18) | 88 µM | 200 |  |  |  | 88 µM | 200 | > 88 µM | > 88 µM | > 200 | > 200 | > 88 | > 88 | 
I: H-RRWQWRMKKLGK[Ahx]C-NH2 / II: H-RRWQWRMKKLGK[Ahx]C-NH2 / III: H-RRWQWRMKKLG / IV: H-RRWQWRMKKLG (amide I:12-III:C, II:12-IV:C; disulfide I:14-II:14) [LfcinB (20–30)4] | 15 µM | 200 |  |  |  | 15 µM | 200 | 15 µM | 15 µM | 200 | 200 |  |  | 
RRWQWRMKKLG-NH2 [LfcinB (20–30)] | 130 µM |  |  |  |  | 130 µM |  | 130 µM | 130 µM |  |  | > 130 | > 130 | > 500
